Reference: patent US12599136B2, “Substituted isophthalic acid diamides and their use as herbicides” (Bayer Aktiengesellschaft, priority 2020, dated 2026)

What was measured:
Format in all cases: in vivo
[1] = test system: Setaria viridis; assay: Pre-emergence herbicidal action against SETVI
How it was run: (§1)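 Pre-emergence soil-surface spray of formulated compound (WP or EC; 600 to 800 l/ha; 0.2% wetting agent) over seeds sown in sandy loam. After 3 weeks under greenhouse conditions, damage is estimated visually in percent against untreated plants.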

[2] = test system: Pharbitis purpurea; assay: Pre-emergence herbicidal action against PHBPU; settings: 320 g/ha; visual score after 3 weeks vs untreated controls
From the text: (§2) Seeds of monocotyledonous and dicotyledonous weed plants and crop plants are laid out in sandy loam soil in wood-fiber pots and covered with soil. The compounds of the invention, formulated in the form of wettable powders (WP) or as emulsion concentrates (EC), are then applied to the surface of the covering soil in the form of an aqueous suspension or emulsion at a water application rate equivalent to 600 to 800 l/ha, with addition of 0.2% wetting agent. After the treatment, the pots are placed in a greenhouse and kept under good growth conditions for the trial plants. The damage to the test plants is scored visually after a test period of 3 weeks by comparison with untreated controls (herbicidal activity in percent (%): 100% activity=the plants have died, 0% activity=like control plants). […] The tables below illustrate, in an illustrative manner, the post-emergence herbicidal action of the compounds of the invention, the herbicidal activity being stated in percent.

[3] = test system: Avena fatua; assay: Post-emergence herbicidal action against AVEFA; settings: 80 g/ha, visual assessment about 3 weeks after treatment
How it was run: (§3)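 Greenhouse plants in sandy loam were sprayed at the one-leaf stage, 2 to 3 weeks after sowing, with WP or EC formulations as aqueous suspension or emulsion (600 to 800 l/ha water, 0.2% wetting agent). Visual damage was scored about 3 weeks later versus untreated controls, 0% = like control, 100% = dead.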

[4] = test system: Abutilon theophrasti; assay: Pre-emergence herbicidal action against ABUTH; settings: visual score after 3 weeks vs untreated controls
How it was run: as §1

[5] = test system: Viola tricolor; assay: Pre-emergence herbicidal action against VIOTR
How it was run: as §1

[6] = test system: Stellaria media; assay: Post-emergence herbicidal action against STEME; settings: visual assessment about 3 weeks after treatment
Procedure: Seeds of monocotyledonous and dicotyledonous weed and crop plants are laid out in sandy loam soil in wood-fiber pots, covered with soil and cultivated in a greenhouse under good growth conditions. 2 to 3 weeks after sowing, the test plants are treated at the one-leaf stage. The compounds of the invention, formulated in the form of wettable powders (WP) or as emulsion concentrates (EC), are then sprayed onto the green parts of the plants in the form of an aqueous suspension or emulsion at a water application rate equivalent to 600 to 800 l/ha, with addition of 0.2% wetting agent. After the test plants have been left to stand in the greenhouse under optimal growth conditions for about 3 weeks, the action of the preparations is assessed visually in comparison to untreated controls (herbicidal action in percent (%): 100% activity=the plants have died, 0% activity=like control plants). […] The tables below illustrate, in an illustrative manner, the post-emergence herbicidal action of the compounds of the invention, the herbicidal activity being stated in percent.

[7] = test system: Amaranthus retroflexus; assay: Pre-emergence herbicidal action against AMARE; settings: visual score after 3 weeks vs untreated controls
How it was run: as §1

[8] = test system: Avena fatua; assay: Pre-emergence herbicidal action against AVEFA; settings: 320 g/ha; visual score after 3 weeks vs untreated controls
How it was run: as §1

[9] = test system: Abutilon theophrasti; assay: Post-emergence herbicidal action against ABUTH
How it was run: as §3

[10] = test system: Amaranthus retroflexus; assay: Post-emergence herbicidal action against AMARE; settings: visual assessment about 3 weeks after treatment
How it was run: as §3

[11] = test system: Matricaria inodora; assay: Pre-emergence herbicidal action against MATIN; settings: visual score after 3 weeks vs untreated controls
How it was run: as §1

[12] = test system: Echinochloa crus-galli; assay: Post-emergence herbicidal action against ECHCG; settings: visual assessment about 3 weeks after treatment
How it was run: as §3

[13] = test system: Cyperus esculentus; assay: Pre-emergence herbicidal action against CYPES; settings: visual score after 3 weeks vs untreated controls
From the text: as §2

[14] = test system: Polygonum convolvulus; assay: Pre-emergence herbicidal action against POLCO; settings: 320 g/ha
How it was run: as §1

[15] = test system: Matricaria inodora; assay: Post-emergence herbicidal action against MATIN; settings: visual assessment about 3 weeks after treatment
How it was run: as §3

[16] = test system: Stellaria media; assay: Pre-emergence herbicidal action against STEME
From the text: as §2

[17] = test system: Viola tricolor; assay: Post-emergence herbicidal action against VIOTR; settings: 80 g/ha
How it was run: as §3

[18] = test system: Pharbitis purpurea; assay: Post-emergence herbicidal action against PHBPU; settings: visual assessment about 3 weeks after treatment
How it was run: as §3

[19] = test system: Echinochloa crus-galli; assay: Pre-emergence herbicidal action against ECHCG; settings: visual score after 3 weeks vs untreated controls
How it was run: as §1

[20] = test system: Veronica persica; assay: Pre-emergence herbicidal action against VERPE; settings: 320 g/ha
How it was run: as §1

For `CCCn1nnnc1NC(=O)c1ccc(C(F)(F)F)c(C(=O)n2cccn2)c1Cl` [Example 3-153], the “Pre-emergence action against SETVI” value ([1]; 20 g/ha) was 90%, the “Pre-emergence action against SETVI” value ([1]; 80 g/ha) was 100% and the “Pre-emergence action against SETVI” value ([1]; 320 g/ha) was 100%. The “Pre-emergence action against PHBPU” value [2] was 100%, the “Post-emergence action against AVEFA in %” value [3] was 80% and the “Pre-emergence action against ABUTH” value ([4]; 20 g/ha) was 100%. For the same compound, the “Pre-emergence action against ABUTH” value ([4]; 80 g/ha) was 100%, the “Pre-emergence action against ABUTH” value ([4]; Dosage column 320 g/ha (heading prints 3200 g/ha)) was 100% and the “Pre-emergence action against VIOTR” value ([5]; 20 g/ha) was 90%. For the same compound, the “Pre-emergence action against VIOTR” value ([5]; 80 g/ha) was 100%, the “Pre-emergence action against VIOTR” value ([5]; 320 g/ha) was 100% and the “Post-emergence action against STEME in %” value ([6]; 5 g/ha) was 100%. For the same compound, the “Post-emergence action against STEME in %” value ([6]; 20 g/ha) was 100%, the “Post-emergence action against STEME in %” value ([6]; 80 g/ha) was 100% and the “Pre-emergence action against AMARE” value ([7]; 20 g/ha) was 100%. For the same compound, the “Pre-emergence action against AMARE” value ([7]; 80 g/ha) was 100%, the “Pre-emergence action against AMARE” value ([7]; 320 g/ha) was 100% and the “Pre-emergence action against AVEFA” value [8] was 90%. For the same compound, the “Post-emergence action against ABUTH” value ([9]; 5 g/ha) was 90%, the “Post-emergence action against ABUTH” value ([9]; 20 g/ha) was 90% and the “Post-emergence action against ABUTH” value ([9]; 80 g/ha) was 90%. For the same compound, the “Post-emergence action against AMARE in %” value ([10]; 5 g/ha) was 90%, the “Post-emergence action against AMARE in %” value ([10]; 20 g/ha) was 90% and the “Post-emergence action against AMARE in %” value ([10]; 80 g/ha) was 100%. The “Pre-emergence action against MATIN” value ([11]; 20 g/ha) was 80%, the “Pre-emergence action against MATIN” value ([11]; 80 g/ha) was 100% and the “Pre-emergence action against MATIN” value ([11]; 320 g/ha) was 100%. For the same compound, the “Post-emergence action against ECHCG in %” value ([12]; 20 g/ha) was 80%, the “Post-emergence action against ECHCG in %” value ([12]; 80 g/ha) was 100% and the “Pre-emergence action against CYPES” value ([13]; 80 g/ha) was 80%. For the same compound, the “Pre-emergence action against CYPES” value ([13]; 320 g/ha) was 80%, the “Pre-emergence action against POLCO” value [14] was 90% and the “Post-emergence action against MATIN in %” value ([15]; 5 g/ha) was 80%. For the same compound, the “Post-emergence action against MATIN in %” value ([15]; 20 g/ha) was 90%, the “Post-emergence action against MATIN in %” value ([15]; 80 g/ha) was 100% and the “Pre-emergence action against STEME” value ([16]; 20 g/ha) was 90%. The “Pre-emergence action against STEME” value ([16]; 80 g/ha) was 100%, the “Pre-emergence action against STEME” value ([16]; 320 g/ha) was 100% and the “Post-emergence action against VIOTR in %” value [17] was 90%. The “Post-emergence action against PHBPU in %” value ([18]; 5 g/ha) was 80%, the “Post-emergence action against PHBPU in %” value ([18]; 20 g/ha) was 80% and the “Post-emergence action against PHBPU in %” value ([18]; 80 g/ha) was 90%. The “Pre-emergence action against ECHCG” value ([19]; 80 g/ha) was 90%, the “Pre-emergence action against ECHCG” value ([19]; 320 g/ha) was 100% and the “Pre-emergence action against VERPE” value [20] was 90%.
